Test results published in patent publication US20140094413A1, “HEPATOCYTE GROWTH FACTOR (HGF) MIMICS AS THERAPEUTIC AGENTS” (WASHINGTON STATE UNIVERSITY, priority 2012, published 2014).
Several values for one entry are separate records, joined by “and”; a condition that tells them apart may be missing. Equal entries are not always repeated. Entries after “also recorded” stand apart in the source; their conditions may differ. Where two headings read alike, the source gives them in different places. Where a SMILES comes first, the peptide text is derived from it. [ ]: non-standard residue; d: D form. dNle = CCCC[C@@H](N)C(=O)O; Ahx = NCCCCCC(=O)O

Key:
Met = assay: Inhibition of HGF-dependent Met phosphorylation in HEK293 cells; type: cell-based, human; details: 10 min with HGF+/− analog
Description: HEK293 cells were seeded in 6 well tissue culture plates and grown to 95% confluency in DMEM containing 10% FBS. The cells were serum deprived for 24 h prior to the treatment to reduce the basal levels of phospho-Met. Following serum starvation, cocktails comprised of vehicle and HGF with/without 6-AH analogs were prepared and pre-incubated for 30 min at room temperature. The cocktail was then added to the cells for 10 min to stimulate the Met receptor and downstream proteins. Cells were harvested using RIPA lysis buffer (Millipore; Billerica, Mass.) fortified with phosphatase inhibitor cocktails 1 and 2 (Sigma-Aldrich; St. Louis, Mo.). The lysate was clarified by centrifugation at 15,000 nx g for 15 min, protein concentrations were determined using the BCA total protein assay (Pierce), and then appropriate volumes of the lysates were diluted with 2× reducing Laemmli buffer and heated for ten min at 95° C. Samples containing identical amounts of protein were resolved using SDS-PAGE (Criterion, BioRad Laboratories), transferred to nitrocellulose, and blocked in Tris-buffered saline (TBS) containing 5% milk for 1 h at room temperature. The phospho-Met antibody were added to the blocking buffer at a final concentration of 1:1000 and incubated at 4° C. overnight with gentle agitation. The membranes were then washed several times with water and TBS ([…], 0.05% Tween-20), a 1:5000 dilution of horseradish-peroxidase conjugated goat anti-rabbit antiserum was added, and the membranes further incubated for 1 h at room temperature. Proteins were visualized using the Supersignal West Pico Chemiluminescent Substrate system (Pierce, Fenton, Mo.) and molecular weights determined by comparison to protein ladders (BenchMark, Invitrogen, and Kaleidoscope, BioRad). Film images were digitized and analyzed using a UVP phosphoimager.

human HGF [1] = molecular target: T1, human HGF (Homo sapiens, UniProt P14210); assay: HGF binding, competition with 3H-Hinge; details: 1.25 ng HGF, 40 min at 37° C.; N=9
T1 construct: purchased R&D Systems (Minneapolis, Minn.)
Description: The binding of 6-AH analogs to HGF was assessed by competition using a soluble binding assay. 250 μl of PBS containing human HGF (1.25 ng) were incubated with ^3H-Hinge, the central dimerization domain of HGF, in the presence of varying concentrations of 6-AH analogs between 10^−13 M to 10^−7M (half-log dilutions) for 40 min at 37° C. The incubates were then spun through Bio-Gel P6 spin columns (400 μl packed volume) for 1 min to separate free and bound ^3H-Hinge and the eluent was collected. Five milliliters of scintillation fluid was added to the eluent, which contained the HGF bound ^3H-Hinge, and was then counted using scintillation counter. Total disintegrations per minute of bound ^3H-Hinge were calculated based on machine counting efficiency. The Ki values for the binding of the peptides were determined using the Prism 5. Competition binding curves were performed in triplicate.

MDCK cells [2] = assay: HGF-dependent MDCK cell proliferation (MTT); type: cell-based, canine; details: analogs at 10^−10M, HGF 10 ng/ml, 4 days
Description: 5000 MDCK cells were seeded into the wells of a 96 well plates in 10% FBS DMEM. To induce cellular quiescence, the cells were serum deprived for 24 h prior to initiating the treatments. Following serum starvation, 10 ng/ml HGF alone and with various concentrations of 6-AH analogs or PBS vehicle were added to the media. The cells were allowed to grow under these conditions for 4 days with a daily addition of 6-AH analogs. On the fourth day, 1 mg/ml of […] (MTT, Sigma-Aldrich) prepared in PBS was added to the cells and incubated for 4 h. Dimethyl sulfoxide diluted in a 0.01M glycine buffer was added to solubilize the cell membranes and the absorbance of reduced MTT in the buffer was quantitated at 590 nm using a plate reader (Biotek Synergy 2, Winooski, Vt.). HGF-dependent proliferation was determined by subtracting the basal proliferation (in the absence of HGF) from total proliferation rates in groups containing HGF.

Blood stability studies = details: heparinized rat blood, 37° C.; single phase exponential decay
MDCK cells [3] = assay: Inhibition of HGF-dependent scattering in MDCK cells; type: cell-based, canine; details: HGF 20 ng/ml, 48 h
Description: MDCK cells were grown to 100% confluency on the coverslips in six-well plates and washed twice with PBS. The confluent coverslips were then aseptically transferred to new six well plates containing 900 μl serum free DMEM. Norleual, Hinge peptide, and/or HGF (20 ng/ml) were added to appropriate wells. Control wells received PBS vehicle. Plates were incubated at 37° C. with 5% CO2 for 48 h. Media was removed and cells were fixed with methanol. Cells were stained with Diff-Quik Wright-Giemsa (Dade-Behring, Newark, Del.) and digital images were taken. Coverslips were removed with forceps and more digital images were captured. Pixel quantification of images was achieved using Image J and statistics were performed using Prism 5 and InStat v.3.05 (GraphPad; San Diego, Calif.).

human HGF [4] = molecular target: T1, human HGF; assay: HGF dimerization; type: biochemical; details: analogs at 10^−10 M, heparin, 30 minute incubation
Description: HGF dimerization was assessed using PAGE followed by silver staining (Kawas et al., 2011). Human HGF at a concentration of 0.08 ng/μl with or without 6-AH analogs was incubated with heparin at a final concentration of 5 μg/ml. Loading buffer was then added to each sample and the mixture separated by native PAGE using gradient Criterion XT precast gels (4-12% Bis-Tris; Biorad Laboratories, Hercules, Calif.). Next the gel was silver stained for the detection of the HGF monomers and dimers. Bands were quantitated from digital images using a UVP phosphoimager (Upland, Calif.).

[5] = rat
Microsomal metabolism = type: in vitro ADME, rat; details: over 90 min; data not shown
[6] = system: B16-F10 murine melanoma cells; assay: B16-F10 melanoma lung colony formation; type: in vivo, mouse; details: C57BL/6 mice, daily IP 10 μg/kg/day or 100 μg/kg/day, 14 days
Description: Six to eight month old C57BL/6 mice were injected with 400,000 B16-F10 cells in 200 μl PBS by tail vein injection and subsequently received daily intraperitoneal injections of either D-Nle-X-Cys-NH—(CH2)5—CONH2 ([…]) or a PBS vehicle control. Two weeks later, mice were anesthetized and lungs were perfused with PBS and removed. Photos were taken and lungs were solubilized in 1% Triton x-100, 20 mM Tris, 0.15 M NaCl, 2 mM EDTA, and 0.02% sodium azide. Samples were disrupted by sonication (Mixonix, Farmingdale, N.Y.) and spun. The supernatant was transferred to a 96 well plate and melanin absorbance at 410 nm was measured using a plate reader.

[7] = rat; remark: listed apart in the source

T1 sequence (P14210 32-728): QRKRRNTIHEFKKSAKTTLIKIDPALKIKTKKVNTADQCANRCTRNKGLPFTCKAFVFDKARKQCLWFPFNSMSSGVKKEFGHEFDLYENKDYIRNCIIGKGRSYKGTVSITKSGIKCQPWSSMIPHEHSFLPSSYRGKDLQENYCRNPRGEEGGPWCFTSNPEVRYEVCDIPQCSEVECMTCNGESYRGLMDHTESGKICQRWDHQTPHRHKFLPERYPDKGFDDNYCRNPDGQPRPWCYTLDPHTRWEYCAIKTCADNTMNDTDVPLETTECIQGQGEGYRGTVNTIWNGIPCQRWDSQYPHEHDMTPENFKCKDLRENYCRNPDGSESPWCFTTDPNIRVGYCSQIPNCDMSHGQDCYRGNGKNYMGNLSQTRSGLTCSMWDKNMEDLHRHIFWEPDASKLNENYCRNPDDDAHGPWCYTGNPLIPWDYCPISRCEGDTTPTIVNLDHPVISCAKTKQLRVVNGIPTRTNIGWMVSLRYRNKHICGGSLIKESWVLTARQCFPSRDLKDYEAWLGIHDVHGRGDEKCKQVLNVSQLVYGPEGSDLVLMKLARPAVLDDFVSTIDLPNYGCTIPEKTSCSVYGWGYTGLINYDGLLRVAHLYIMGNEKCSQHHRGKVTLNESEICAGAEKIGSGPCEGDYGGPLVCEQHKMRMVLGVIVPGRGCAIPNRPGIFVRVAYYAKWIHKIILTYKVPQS

Row | Ki (human HGF [1]) [nM] | Stability t1/2 in blood (Blood stability studies) | Inhibition of HGF dimerization (human HGF [4]) | Total recovery from serum ([5]; in vivo) | AUC(0-inf) ([5]; in vivo, iv, 24 mg/kg) [µg·h/mL] | C0 ([5]; in vivo, iv, 24 mg/kg) [µg/mL] | KE (rate of elimination) ([5]; in vivo, iv, 24 mg/kg) [min − 1] | Vd ([5]; in vivo, iv, 24 mg/kg) [L/kg] | clearance ([5]; in vivo, iv, 24 mg/kg) [L/h/kg] | t1/2 (in vivo elimination half-life) ([5]; iv, 24 mg/kg) [h] | Phase I metabolism in rat liver microsomes (Microsomal metabolism) | Stability t1/2 in blood [7] [min] | Compound | Inhibition of HGF-dependent Met phosphorylation (Met) | Inhibition of HGF-dependent MDCK cell proliferation (MDCK cells [2]) | Inhibition of HGF-dependent MDCK cell scattering (MDCK cells [3]) | Inhibition of HGF dimerization (human HGF [4]; listed as Tyr) | Inhibition of B16-F10 melanoma lung colonization [6] | Inhibition of B16-F10 melanoma lung colonization ([6]; listed as D-Nle-Cys-Ile-(6)-amino-hexanoic amide) | Inhibition of HGF dimerization (human HGF [4]; listed as Cys)
1 | 0.243 | 1.33 h and 1.333 h | completely block HGF dimer formation | greater than 35% | 11.5 | 68.2 ± 32.2 | 0.001 ± 0.0002 | 104 ± 65 | 3.5 ± 0.936 | 16.87 | no detectable metabolism | – | CCCC[C@@H](N)C(=O)N[C@@H](Cc1ccc(O)cc1)C(=O)N[C@H](C(=O)NCCCCCC(N)=O)[C@@H](C)CC (H-[dNle]YI[Ahx]-NH2) | able to block Met auto-phosphorylation | marked inhibitory activity | different from the HGF alone group but not different from the control group | statistically different than the HGF treated group | – | – | –
2 | 0.133 | – | completely block HGF dimer formation | – | – | – | – | – | – | – | – | – | CCCC[C@@H](N)C(=O)N[C@@H](CS)C(=O)N[C@H](C(=O)NCCCCCC(N)=O)[C@@H](C)CC [D-Nle-Cys-Ile-NH—(CH2)5—CONH2] (H-[dNle]CI[Ahx]-NH2) | able to block Met auto-phosphorylation | marked inhibitory activity | different from the HGF alone group but not different from the control group | – | suppressed pulmonary colonization; also recorded: radically prevented lung colonization | obvious reduction in melanoma colonies | statistically different than the HGF treated group
3 | – | – | – | – | – | – | – | – | – | – | – | 4.6 | CCCC[C@H](N)C(=O)N[C@@H](Cc1ccc(O)cc1)C(=O)N[C@H](CN[C@@H](Cc1c[nH]cn1)C(=O)N1CCC[C@H]1C(=O)N[C@@H](Cc1ccccc1)C(=O)O)CC(C)C [Norleual, Nle-Tyr-Leu-Ψ-(CH2—NH2)^3-4-His-Pro-Phe] | – | – | – | – | – | – | –
